# Measured values taken from patent US5461044A, “Cephalosporin derivatives” (Meiji Seika Kaisha, Ltd., priority 1991, dated 1995).
# Like-named read-outs stand apart in the source and are kept apart here.
# Columns and labels:
# [1] = test system: Staphylococcus aureus M126; experiment: Minimum growth inhibition concentration, standard serial dilution method; format: cell-based; conditions: Staphylococcus aureus M126 (methicillin-resistant); 10^6 CFU/ml, 35° C., 18 to 20 hours
# Method: (§1) In this Test Example, the antibacterial activity of some exemplary compounds indicated below and chosen from amongst the compounds of the general formula (I) according to this invention is illustrated by determining their minimum growth inhibition concentrations to various bacteria as measured by a standard serial dilution method. In this case, the determination was carried out by inoculating 10^6 CFU/ml of test bacteria to a culture medium N for sensitive disc (as prepared by Nissui Pharmaceutical Co., Ltd.), incubating the bacteria at 35° C. for 18 to 20 hours, and then evaluating the bacterial growth. Test compounds used are as follows:
# (§2) The measured values of the minimum growth inhibition concentrations ([…]) of the above-mentioned compounds A, B and C are shown in Table 1.
# (§3) Note: (*) means methicillinresistant Staphylococus aureus.
# [2] = test system: Staphylococcus aureus M133; experiment: as above; format: cell-based; conditions: Staphylococcus aureus M133 (methicillin-resistant); 10^6 CFU/ml, 35° C., 18 to 20 hours
# Method: as §1, §2, §3
# [3] = test system: Staphylococcus epidermidis ATCC14990; experiment: as above; format: cell-based; conditions: 10^6 CFU/ml, 35° C., 18 to 20 hours
# Method: as §1, §2
# [4] = test system: Klebsiella pneumoniae PCI602; experiment: as above; format: cell-based
# Method: as §1, §2
# [5] = test system: Escherichia coli NIHJ JC-2; experiment: as above; format: cell-based
# Method: as §1, §2
# Proteus vulgaris GN76 = experiment: as above; format: cell-based
# Method: as §1, §2
# [6] = test system: Marganella morganii 1510/S-1; experiment: as above; format: cell-based; conditions: read-out: Minimum growth inhibition concentration
# Method: as §1, §2
# [7] = test system: Staphylococcus aureus 209P JC-1; experiment: as above; format: cell-based; conditions: read-out: Minimum growth inhibition concentration
# Method: as §1, §2
# [8] = Toxicity (LD50) on intravenous administration in mice; conditions: mouse, in vivo
# Method: The cephalosporin derivative of the general formula (I) according to this invention can safely be administered to mammals because it is of low toxicity. […] The new cephalosporin derivative of this invention may be administered orally at a unit dose of 100 mg to 250 mg to an adult human patient four times a day, for a guideline. However, precise dosage of the new cephalosporin derivative of this invention is determinable through preliminary routine experiments, depending on the body weight, ages, sex and other various parameters of patients as well as the nature of the bacterial infections to be treated, and so on.
# [9] = Concentration in blood upon subcutaneous injection in mice (HPLC, serum); format: in vivo, mice of ICR strain; conditions: sc, male ICR mice, 0.5 mg per mouse; for half-life / AUC: Gauss-Newton method; for AUC: read-out: AUC (Area under the plasma concentration-time curve); for Cmax: HPLC, read-out: Maximum concentration in blood
# Method: Test compounds used are as follows:
# The test procedure used was as follows. That is, 5 mice of ICR strain (male, 4-weeks-aged, 1 mouse in each group/at the time of collection of blood samples) were used as test animal and 0.5 mg of each test compound dissolved in 0.2 ml of a purified water sterilized for injection was subcutaneously injected to each mouse. Blood samples were collected from each mouse 5 minutes, 15 minutes, 30 minutes, 1 hour and 2 hours after the aministration of test compound. Each blood sample as collected was post-treated in a usual manner and the concentration of the cephem compound in the serum was then quantitatively determined by the use of HPLC (High Performance Liquid Chromatography). A half-life value and AUC which were pharmacokinetic parameters were calculated by the Gauss-Newton method.
# AUC means "Area under the plasma concentration-time curve".
# [10] = Proteus vulgaris GN76, 10^6 CFU/ml, 35° C., 18 to 20 hours, read-out: Minimum growth inhibition concentration
# [11] = Klebsiella pneumoniae, PCI602, read-out: Minimum growth inhibition concentration
# [12] = Escherichia coli, NIHJJC2, read-out: Minimum growth inhibition concentration
SMILES,MIC [1] [µg/mL],MIC [2] [µg/mL],MIC [3] [µg/mL],"MIC ([4]; Klebsiella pneumoniae PCI602, 10^6 CFU/ml, 35° C., 18 to 20 hours, read-out: Minimum growth inhibition concentration) [µg/mL]","MIC ([5]; NIHJJC2, Escherichia coli NIHJ JC-2, 10^6 CFU/ml, 35° C., 18 to 20 hours, read-out: Minimum growth inhibition concentration) [µg/mL]",MIC (Proteus vulgaris GN76; [10]) [µg/mL],MIC [6] [µg/mL],MIC [7] [µg/mL],LD50 [8] [mg/kg],"MIC [4, 11] [µg/mL]","MIC [5, 12] [µg/mL]","MIC (Proteus vulgaris GN76; Proteus vulgaris, GN76, read-out: Minimum growth inhibition concentration) [µg/mL]",half-life [9] [min],AUC [9] [ng·h/mL],Cmax [9] [µg/mL]
"Nc1nc(/C(=N/O)C(=O)NC2C(=O)N3C(C(=O)O)=C(Sc4nc5ccccc5s4)CS[C@H]23)cs1 (stereo partly shown) [B, 7-[(Z)-2-(2-aminothiazol-4-yl)-2hydroxyiminoacetamido]-3-(benzothiazol-2-yl)thio-3-cephem-4-carboxylic acid]",3.13,1.56,0.2,25,25,100,3.13,0.2,,,,,,,
"CO/N=C(\C(=O)NC1C(=O)N2C(C(=O)O)=C(Sc3nc4ccccc4s3)CS[C@H]12)c1csc(N)n1 (stereo partly shown) [Compound A, 7-[(Z)-2-(2-aminothiazol-4-yl)-2methoxyiminoacetamido]-3-(benzothiazol-2-yl)thio-3-cephem-4-carboxylic acid]",6.25,3.13,0.2,,,,0.78,0.39,1000 to 1500,3.13,3.13,3.13,42,62500,51.6
"Nc1nc(/C(=N/OCC(=O)O)C(=O)NC2C(=O)N3C(C(=O)O)=C(Sc4nc5ccccc5s4)CSC23)cs1 (stereo not shown) [Compound C, 7-[(Z)-2-(2-aminothiazol-4-yl)-2carboxymethoxyiminoacetamido]-3-(benzothiazol-2-yl)thio3-cephem-4-carboxylic acid]",50,12.5,1.56,,,0.1,0.78,3.13,,3.13,3.13,,55.2,131000,80.8
